Data as given in PMC11202142, “Succinimide Derivatives as Acetylcholinesterase Inhibitors—In Silico and In Vitro Studies” (Current Issues in Molecular Biology, 2024).

Columns and labels:
[1] = biological target: acetylcholinesterase (AChE) (Homo sapiens, UniProt P22303); test: Ellman spectrophotometric assay, Lineweaver-Burk kinetics; assay type: biochemical
[2] = substrate: CC(=O)SCC[N+](C)(C)C; test: Ellman assay, Km from Lineweaver-Burk plot without inhibitor; assay type: biochemical, Homo sapiens

Row | Molecule | IC50 [1] [µM] | Km [2] [µM] | Vmax [2] [µM/min]
1 | CCC12C(=O)C(CC)(C(c3ccccc3)=C1c1ccccc1)C1C(=O)NC(=O)C12 (stereo not shown) [I, diethyl (I) succinimide derivative] | 31 ± 3 |  | 
2 | CC12C(=O)C(C)(C(c3ccccc3)=C1c1ccccc1)C1C(=O)NC(=O)C12 (stereo not shown) [II, dimethyl (II) succinimide derivative] | 29 ± 2 |  | 
3 | acetylcholinesterase (AChE) (Homo sapiens) (protein) EGREDAELLVTVRGGRLRGIRLKTPGGPVSAFLGIPFAEPPMGPRRFLPPEPKQPWSGVVDATTFQSVCYQYVDTLYPGFEGTEMWNPNRELSEDCLYLNVWTPYPRPTSPTPVLVWIYGGGFYSGASSLDVYDGRFLVQAERTVLVSMNYRVGAFGFLALPGSREAPGNVGLLDQRLALQWVQENVAAFGGDPTSVTLFGESAGAASVGMHLLSPPSRGLFHRAVLQSGAPNGPWATVGMGEARRRATQLAHLVGCPPGGTGGNDTELVACLRTRPAQVLVNHEWHVLPQESVFRFSFVPVVDGDFLSDTPEALINAGDFHGLQVLVGVVKDEGSYFLVYGAPGFSKDNESLISRAEFLAGVRVGVPQVSDLAAEAVVLHYTDWLHPEDPARLREALSDVVGDHNVVCPVAQLAGRLAAQGARVYAYVFEHRASTLSWPLWMGVPHGYEIEFIFGIPLDPSRNYTAEEKIFAQRLMRYWANFARTGDPNEPRDPKAPQWPPYTAGAQQYVSLDLRPLEVRRGLRAQACAFWNRFLPKLLSATDTLDEAERQWKAEFHRWSSYMVHWKNQFDHYSKQDRCSDL |  | 960 | 630
